Experimental data from patent US20030068615A1, “Polypeptides that bind HIV gp120 and related nucleic acids, antibodies, compositions, and methods of use” (priority 1999, published 2003).
Like-named read-outs stand apart in the source and are kept apart here.

Biological target: HIV-1LAI envelope gp120 (Human immunodeficiency virus type 1 group M subtype B, UniProt P03377)
Format: binding
Settings: for number of radioactive decays (counts) counted: human CD4 21-mer scan, empty control 2075; for Counts per 20′ Average-background: CCR5 18-mer scan, radiolabeled HIV-1LAI gp120; for Binding Results For Window Length (counts bound-background), 9 / Binding Results For Window Length (counts bound-background), 12 / Binding Results For Window Length (counts bound-background), 15 / Binding Results For Window Length (counts bound-background), 18: STRL33 amino terminus; for Binding Results For Window Length (counts bound-background), 9: 9-mer starting at the first residue of the printed sequence; for Binding Results For Window Length (counts bound-background), 12: 12-mer starting at the first residue of the printed sequence; for Binding Results For Window Length (counts bound-background), 15: 15-mer starting at the first residue of the printed sequence; for Binding Results For Window Length (counts bound-background), 18: 18-mer starting at the first residue of the printed sequence
[1] = Panel C, 15-mers and 18-mers of CD4, empty control 556
[2] = Panel A, 21-mers of CD4, empty control 515 and 617
[3] = Panel E, 9-mers and 12-mers of CD4, empty control 571
[4] = Panel B, 15-mers and 18-mers of CD4, empty control 575
[5] = CXCR4 18-mer scan, background subtracted, empty control 0
[6] = CXCR4 18-mer scan, empty control 412
[7] = STRL33 18-mer scan, background subtracted, first of two count columns
[8] = STRL33 18-mer scan, background subtracted, second of two count columns
[9] = Panel D, 9-mers and 12-mers of CD4, empty control […]

Sequence: VVLAFQKASSIVYKKEGE
- COUNTS of radiolabeled gp120 retained [1]: 560 counts

Sequence: VVLAFQKASSIVYKKEGEQVE
- COUNTS of radiolabeled gp120 retained [2]: 772 counts

Sequence: VYKKEGEQV
- COUNTS of radiolabeled gp120 retained [3]: 490 counts

Sequence: VYKKEGEQVEFS
- COUNTS of radiolabeled gp120 retained [3]: 584 counts

Sequence: VYKKEGEQVEFSFPL
- COUNTS of radiolabeled gp120 retained [1]: 714 counts

Sequence: VYKKEGEQVEFSFPLAFT
- COUNTS of radiolabeled gp120 retained [1]: 4307 counts

Sequence: VYKKEGEQVEFSFPLAFTVEK [human CD4 211-231]
- COUNTS of radiolabeled gp120 retained [2]: 2429 counts
- number of radioactive decays (counts) counted: 14740 counts

Sequence: WDQGNFPLIIKNLKI
- COUNTS of radiolabeled gp120 retained [4]: 534 counts

Sequence: WDQGNFPLIIKNLKIEDS
- COUNTS of radiolabeled gp120 retained [4]: 626 counts

Sequence: WGPTSPKLMLSLKLENKEAKV [human CD4 331-351]
- number of radioactive decays (counts) counted: 2414 counts

Sequence: WIPALLLTIPDFIFANVS
- radioactive counts recorded in twenty minutes [5]: 182 counts
- radioactive counts recorded in twenty minutes [6]: 594 counts

Sequence: WITFDLKNKEVSVKRVTQDPK
- number of radioactive decays (counts) counted: 2126 counts

Sequence: WTCTVLQNQKKVEFK
- COUNTS of radiolabeled gp120 retained [1]: 566 counts

Sequence: WTCTVLQNQKKVEFKIDI
- COUNTS of radiolabeled gp120 retained [1]: 588 counts

Sequence: WVVAVFASLPGIIFTRSQ [CCR5 segment 153-]
- Counts per 20′ Average-background (background subtracted): 87 counts per 20′

Sequence: YAAAQWDFGNTMCQLLTG [CCR5 segment 89-]
- Counts per 20′ Average-background (background subtracted): 494 counts per 20′

Sequence: YAFVGEKFRNYLLVFFQK [CCR5 segment 297-]
- Counts per 20′ Average-background (background subtracted): 596 counts per 20′

Sequence: YAGIHEWVFGQVMCKSLL [STRL33 segment 89-106]
- radioactive counts recorded in twenty minutes [7]: 5911.5 counts
- radioactive counts recorded in twenty minutes [8]: 6245.5 counts

Sequence: YAGSGNLTLALEAKTGKLHQE [human CD4 291-311]
- number of radioactive decays (counts) counted: 1830 counts

Sequence: YAMTSFHYTIMVTEAIAY [STRL33 segment 261-278]
- radioactive counts recorded in twenty minutes [7]: 2688.5 counts
- radioactive counts recorded in twenty minutes [8]: 2359.5 counts

Sequence: YDSMKEPCFREENANFNK [CXCR4 segment 21-38]
- radioactive counts recorded in twenty minutes [5]: 53 counts
- radioactive counts recorded in twenty minutes [6]: 465 counts

Sequence: YGFSSFNDSSQEEHQAFL
- Binding Results For Window Length (counts bound-background), 9 (background subtracted): 345 counts
- Binding Results For Window Length (counts bound-background), 12 (background subtracted): 745 counts
- Binding Results For Window Length (counts bound-background), 15 (background subtracted): 645 counts
- Binding Results For Window Length (counts bound-background), 18 (background subtracted): 1138 counts

Sequence: YGNVFNLDKLICGYHDEA
- radioactive counts recorded in twenty minutes [7]: −41.5 counts
- radioactive counts recorded in twenty minutes [8]: −20.5 counts

Sequence: YHEDYGFSSFNDSSQEEH
- Binding Results For Window Length (counts bound-background), 9 (background subtracted): 728 counts
- Binding Results For Window Length (counts bound-background), 12 (background subtracted): 1950 counts
- Binding Results For Window Length (counts bound-background), 15 (background subtracted): 1357 counts
- Binding Results For Window Length (counts bound-background), 18 (background subtracted): 985 counts

Sequence: YICEVEDQK
- COUNTS of radiolabeled gp120 retained [9]: 728 counts

Sequence: YICEVEDQKEEV
- COUNTS of radiolabeled gp120 retained [9]: 734 counts

Sequence: YICEVEDQKEEVQLL
- COUNTS of radiolabeled gp120 retained [4]: 1064 counts

Sequence: YICEVEDQKEEVQLLVFG
- COUNTS of radiolabeled gp120 retained [4]: 4611 counts

Sequence: YKKEGEQVE
- COUNTS of radiolabeled gp120 retained [3]: 518 counts

Sequence: YKKEGEQVEFSF
- COUNTS of radiolabeled gp120 retained [3]: 548 counts

Sequence: YKKEGEQVEFSFPLA
- COUNTS of radiolabeled gp120 retained [1]: 687 counts

Sequence: YKKEGEQVEFSFPLAFTV
- COUNTS of radiolabeled gp120 retained [1]: 4839 counts

Sequence: YKKEGEQVEFSFPLAFTVEKL
- COUNTS of radiolabeled gp120 retained [2]: 735 counts

Sequence: YQKKLRSMTDKYRLHLSV [CXCR4 segment 65-82]
- radioactive counts recorded in twenty minutes [5]: 99 counts
- radioactive counts recorded in twenty minutes [6]: 511 counts

Sequence: YSIIFLTGIVGNGLVILV [CXCR4 segment 45-62]
- radioactive counts recorded in twenty minutes [5]: 123 counts
- radioactive counts recorded in twenty minutes [6]: 535 counts

Sequence: YSSVLILAFISLDRYLAI
- radioactive counts recorded in twenty minutes [5]: 157 counts
- radioactive counts recorded in twenty minutes [6]: 569 counts

Sequence: YTINFYTSMLILTCITVD
- radioactive counts recorded in twenty minutes [7]: 351.5 counts
- radioactive counts recorded in twenty minutes [8]: 510.5 counts

Sequence: YVGVWIPALLLTIPDFIF
- radioactive counts recorded in twenty minutes [5]: 124 counts
- radioactive counts recorded in twenty minutes [6]: 536 counts
